# Measurements taken from patent publication US7741244B2, “Fungicide compositions” (priority 2002, dated 2010).
# Key:
# Botrytis cinerea [1] = assay: PDA plate inhibition, caprylic acid and organic acids (Example 13); format: cell-based; details: PDA plates
# White mold = assay: as above; format: cell-based; details: PDA plates
# Botrytis cinerea [2] = assay: Inhibition of fungal infections on fresh raspberries (Example 9); format: in vivo; details: raspberries (Heritage), 60 s dip
# Late blight = format: cell-based; details: PDA plates; day 2 after inoculum; control plate = 100%
# Septoria = details: PDA plates, control plate = 100%
smiles,measurement,setting,value
"O=C(O)CC(O)(CC(=O)O)C(=O)O [0.010% citric acid, citric acid]",Inhibition (%) of Botrytis cinerea,Botrytis cinerea [1],0%
same,Inhibition (%) of white mold,White mold,0%
"O=C(O)CCC(=O)O [0.010% succinic acid, succinic acid]",Inhibition (%) of Botrytis cinerea,Botrytis cinerea [1],0%
same,Inhibition (%) of white mold,White mold,0%
"O=C(O)C(O)C(O)C(=O)O (stereo not shown) [0.75% tartaric acid, tartaric acid]",Infected berries (% of total) Day 2,Botrytis cinerea [2]; day 2,31%
same,Infected berries (% of total) Day 3,Botrytis cinerea [2]; day 3,58%
same,Infected berries (% of total) Day 4,Botrytis cinerea [2]; day 4,86%
same,Infected berries (% of total) Day 6,Botrytis cinerea [2]; day 6,92%
same,Infected berries (% of total) Day 8,Botrytis cinerea [2]; day 8,92%
same,Infected berries (% of total) Day 10,Botrytis cinerea [2]; day 10,92%
same,Infected berries (% of total) Day 12,Botrytis cinerea [2]; day 12,92%
O=C(O)CO [glycolic acid],Inhibition (%) of Botrytis cinerea,Botrytis cinerea [1],0%
same,"Measurement of fungal growth, Late blight Day 2",Late blight,79%
same,Inhibition (%) of white mold,White mold,0%
same,"Measurement of fungal growth, Septoria Day 2",Septoria; day 2 after inoculum,80%
same,"Measurement of fungal growth, Septoria Day 3",Septoria; day 3 after inoculum,90%
